Experimental data reported in patent publication US4444759A, “GnRH Antagonists II” (The Salk Institute for Biological Studies, priority 1982, dated 1984).
Square brackets hold non-standard residues; d marks the D form. Peptide text beside a SMILES is read from it. dPhe(4-NO2) = N[C@H](Cc1ccc([N+](=O)[O-])cc1)C(=O)O; dPhe(4-NH2) = Nc1ccc(C[C@@H](N)C(=O)O)cc1; dPhe(4-Br) = N[C@H](Cc1ccc(Br)cc1)C(=O)O; dPhe(4-Cl) = N[C@H](Cc1ccc(Cl)cc1)C(=O)O; dPhe(4-F) = N[C@H](Cc1ccc(F)cc1)C(=O)O; d2Nal = N[C@H](Cc1ccc2ccccc2c1)C(=O)O

Tested on: LH released by 3 nanomolar GnRH in dissociated rat pituitary cells
Format: cell-based
Settings: not given
Procedure: The peptide is assayed in vitro and in vivo. The in vitro test is made using dissociated rat pituitary cells maintained in culture for 4 days prior to the assay. The levels of LH mediated in response to the application of peptides is assayed by specific radioimmunoassay for rat LH. Control dishes of cells only receive a measure which is 3 nanomolar in GnRH; experimental dishes receive a measure 3 nanomolar in GnRH plus a measure having either the present standard antagonist (for comparison purposes) i.e. [Ac-dehydro Pro^1, 4-F-D-Phe^2, D-Trp^3,6 ]-GnRH or the test peptide in concentrations ranging from 0.01 to 10 nanomolar. The amount of LH secreted in the samples treated only with GnRH is compared with that secreted by the samples treated with the peptide plus GnRH.
The ability of the test peptide to reduce the amount of LH released by 3 nanomolar GnRH is compared to that of the present standard peptide. The results are calculated using 3-5 doses of each of the peptides by the statistical program BIOPROG (provided by D. Rodbard NICHD) and are expressed as a potency relative to the present standard. The standard peptide usually blocks 50% of the LH released by GnRH at less than a ratio of 0.1 [antagonist]/1[GnRH].

| Molecule | in vitro Potency relative to [Ac-dehydro Pro1, 4-F-D-Phe2, D-Trp3,6]-GnRH |
| --- | --- |
| CC(=O)N[C@H](Cc1ccc2ccccc2c1)C(=O)N[C@H](Cc1ccc(F)cc1)C(=O)N[C@H](Cc1c[nH]c2ccccc12)C(=O)N[C@@H](CO)C(=O)N[C@@H](Cc1ccc(O)cc1)C(=O)N[C@H](CCCNC(=N)N)C(=O)N[C@@H](CC(C)C)C(=O)N[C@@H](CCCNC(=N)N)C(=O)N1CCC[C@H]1C(=O)NCC(N)=O [Peptide 1, [Ac-β-D-2NAL^1,4-F-D-Phe^2,D-Trp^3, D-Arg^6]-GnRH] (Ac-[d2Nal][dPhe(4-F)][dW]SY[dR]LRPG-NH2) | 0.44 |
| CC(=O)N[C@H](Cc1ccc2ccccc2c1)C(=O)N[C@H](Cc1ccc(F)cc1)C(=O)N[C@H](Cc1c[nH]c2ccccc12)C(=O)N[C@@H](CO)C(=O)N[C@@H](Cc1ccc(O)cc1)C(=O)N[C@H](Cc1ccc(N)cc1)C(=O)N[C@@H](CC(C)C)C(=O)N[C@@H](CCCNC(=N)N)C(=O)N1CCC[C@H]1C(=O)NCC(N)=O [Peptide 2] (Ac-[d2Nal][dPhe(4-F)][dW]SY[dPhe(4-NH2)]LRPG-NH2) | 1.4 |
| CC(=O)N[C@H](Cc1ccc2ccccc2c1)C(=O)N[C@H](Cc1ccc(Cl)cc1)C(=O)N[C@H](Cc1c[nH]c2ccccc12)C(=O)N[C@@H](CO)C(=O)N[C@@H](Cc1ccc(O)cc1)C(=O)N[C@H](CCCNC(=N)N)C(=O)N[C@@H](CC(C)C)C(=O)N[C@@H](CCCNC(=N)N)C(=O)N1CCC[C@H]1C(=O)NCC(N)=O [Peptide 3] (Ac-[d2Nal][dPhe(4-Cl)][dW]SY[dR]LRPG-NH2) | 0.56 |
| CCNC(=O)[C@@H]1CCCN1C(=O)[C@H](CCCNC(=N)N)NC(=O)[C@H](CC(C)C)NC(=O)[C@@H](CCCNC(=N)N)NC(=O)[C@H](Cc1ccc(O)cc1)NC(=O)[C@H](CO)NC(=O)[C@@H](Cc1c[nH]c2ccccc12)NC(=O)[C@@H](Cc1ccc(Cl)cc1)NC(=O)[C@@H](Cc1ccc2ccccc2c1)NC(C)=O [Peptide 4] (Ac-[d2Nal][dPhe(4-Cl)][dW]SY[dR]LRP-NHEt) | 0.38 |
| CCNC(=O)[C@@H]1CCCN1C(=O)[C@H](CCCNC(=N)N)NC(=O)[C@H](CC(C)C)NC(=O)[C@@H](CCCNC(=N)N)NC(=O)[C@H](Cc1ccc(O)cc1)NC(=O)[C@H](CO)NC(=O)[C@@H](Cc1c[nH]c2ccccc12)NC(=O)[C@@H](Cc1ccc([N+](=O)[O-])cc1)NC(=O)[C@@H](Cc1ccc2ccccc2c1)NC(C)=O [Peptide 5] (Ac-[d2Nal][dPhe(4-NO2)][dW]SY[dR]LRP-NHEt) | 0.20 |
| CCNC(=O)[C@@H]1CCCN1C(=O)[C@H](CCCNC(=N)N)NC(=O)[C@H](CC(C)C)NC(=O)[C@@H](CCCNC(=N)N)NC(=O)[C@H](Cc1ccc(O)cc1)NC(=O)[C@H](CO)NC(=O)[C@@H](Cc1c[nH]c2ccccc12)NC(=O)[C@@H](Cc1ccc(Br)cc1)NC(=O)[C@@H](Cc1ccc2ccccc2c1)NC(C)=O [Peptide 6] (Ac-[d2Nal][dPhe(4-Br)][dW]SY[dR]LRP-NHEt) | 0.46 |
| CC(=O)N[C@H](Cc1ccc2ccccc2c1)C(=O)N[C@H](Cc1ccc(F)cc1)C(=O)N[C@H](Cc1c[nH]c2ccccc12)C(=O)N[C@@H](CO)C(=O)N[C@@H](Cc1ccc(O)cc1)C(=O)N[C@H](CCCNC(=N)N)C(=O)N[C@@H](CC(C)C)C(=O)N[C@@H](CCCNC(=N)N)C(=O)N1CCC[C@H]1C(=O)N[C@H](C)C(N)=O [Peptide 7] (Ac-[d2Nal][dPhe(4-F)][dW]SY[dR]LRP[dA]-NH2) | 0.63 |

Same assay, conditions: 3 nanomolar GnRH; usual value

| Molecule | ratio [antagonist]/1[GnRH] that blocks 50% of the LH released by GnRH |
| --- | --- |
| [Ac-dehydro Pro^1, 4-F-D-Phe^2, D-Trp^3,6 ]-GnRH [standard peptide, reference compound] | < 0.1 [antagonist]/1[GnRH] |
